# Where no end group is shown, it is not given here.
# Columns and labels:
# β-TrCP = target: T1, β-TrCP (Homo sapiens, UniProt Q9Y297); experiment: TR-FRET peptide binding in absence of compound
# T1 construct: 6xHis-SMT3 (N, cleaved yes); made in house; host or cells: E. coli (co-expressed with BirA)
# Procedure: (§1) Compounds were incubated in a 20 μl reaction volume with 300 pM biotinylated β-TrCP/Skp1 preincubated with 1.2 nM terbium-coupled streptavidin (Cisbio) and BODIPY-FL labeled β-catenin peptides (see figure legends for peptide details) in a white 384-well microplate (Perkin Elmer ProxiPlate), using a PBS buffer containing 0.01% Triton X-100 and 2 mM DTT with 2% final DMSO. […] Following 1-h incubation, plates were read for TR-FRET signal after excitation at 320 nm and read at 520 and 620 nm using an EnVision plate reader (Perkin Elmer). TR-FRET signal was calculated using a 520/620 nm ratio. Binding and enhancement data were fit to a standard Hill equation (Y = Bmin + (Bmax − Bmin)(X^h)/(X^h + EC50^h)) in Prism (GraphPad). Errors are standard error of the fit.
# [1] = target: T2, pSer33/S37A β-catenin peptide binding to β-TrCP (Homo sapiens, UniProt P35222+Q9Y297, S37A); experiment: TR-FRET peptide binding and cooperativity assay, pSer33/S37A peptide
# T2 construct: titrating BODIPY-FL-labeled β-catenin peptides (residues 17-48) against 300 pM β-TrCP; 6xHis-SMT3 (N, cleaved yes); made in house; host or cells: E. coli (co-expressed with BirA)
# T2 sequence (Q9Y297 1-569 isoform Q9Y297-2, stated change not applied): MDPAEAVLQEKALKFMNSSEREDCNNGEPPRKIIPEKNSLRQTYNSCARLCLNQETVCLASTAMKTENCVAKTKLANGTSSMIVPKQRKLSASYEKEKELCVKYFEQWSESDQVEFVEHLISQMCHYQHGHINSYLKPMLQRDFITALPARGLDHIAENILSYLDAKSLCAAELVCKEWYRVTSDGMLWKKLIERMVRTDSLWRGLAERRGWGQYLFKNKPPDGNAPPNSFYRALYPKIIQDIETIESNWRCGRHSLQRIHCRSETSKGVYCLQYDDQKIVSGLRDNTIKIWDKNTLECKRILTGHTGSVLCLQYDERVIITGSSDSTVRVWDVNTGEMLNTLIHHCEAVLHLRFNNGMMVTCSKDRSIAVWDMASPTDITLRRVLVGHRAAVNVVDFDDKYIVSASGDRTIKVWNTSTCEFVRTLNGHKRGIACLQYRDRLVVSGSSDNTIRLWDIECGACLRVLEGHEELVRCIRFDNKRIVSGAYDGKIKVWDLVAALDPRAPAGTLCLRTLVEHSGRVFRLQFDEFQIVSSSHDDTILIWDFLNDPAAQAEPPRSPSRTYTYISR
# T2 sequence (P63208 whole entry partner, the tested form may be a part): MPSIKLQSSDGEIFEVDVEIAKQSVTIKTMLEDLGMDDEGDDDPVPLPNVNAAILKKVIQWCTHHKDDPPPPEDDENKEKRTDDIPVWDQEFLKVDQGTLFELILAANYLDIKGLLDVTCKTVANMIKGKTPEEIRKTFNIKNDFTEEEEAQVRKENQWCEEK
# T2 sequence (P35222 17-48 S37A limits assumed): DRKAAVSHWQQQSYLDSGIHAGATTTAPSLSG
# Procedure: as §1
# [2] = target: T3, full-length S33E/S37A β-catenin protein ubiquitylation by SCFβ-TrCP (Homo sapiens, UniProt P35222+Q9Y297, S33E/S37A); experiment: In vitro ubiquitylation of full-length S33E/S37A β-catenin protein; type: biochemical; conditions: 20 μM compound
# T3 construct: 6xHis-SMT3 (N, cleaved yes); host or cells: HEK293T (β-catenin); E. coli (β-TrCP1/Skp1); E. coli or SF9 (Cul1-Rbx1)
# Procedure: (§2) Four micromolar of fluorescently-labeled β-catenin peptide (residues 17–60) were ubiquitylated in a buffer containing 25 mM Tris Cl (pH 7.5), 50 mM NaCl, 5 mM MgCl2, 2 mM ATP, and 1 mM DTT at room temperature in the presence of 62.5 μM Ubiquitin, 125 nM Ube1, 1.75 μM Cdc34A, and 100 nM neddylated SCF^β-TrCP in the presence or absence of compound (as indicated). Typically, individual reaction mixes with either Ubiquitin, Ube1 and Cdc34A or β-catenin, SCF^β-TrCP and compound were preincubated and subsequently mixed to initiate β-catenin ubiquitylation. Reactions were quenched by SDS loading buffer, resolved by SDS-PAGE and imaged for fluorescence. For full length β-catenin protein ubiquitylation 400 nM β-catenin and 400 nM SCF^β-TrCP were used instead.
# [3] = target: T4, pSer33/S37A β-catenin peptide ubiquitylation by SCFβ-TrCP (Homo sapiens, UniProt P35222+Q9Y297, S37A); experiment: In vitro ubiquitylation of pSer33/S37A β-catenin peptide; type: biochemical
# T4 construct: fluorescently-labeled β-catenin peptide (residues 17–60; as indicated) was ubiquitylated; 6xHis-SMT3 (N, cleaved yes); made in house; host or cells: E. coli (β-TrCP1/Skp1); E. coli or SF9 (Cul1-Rbx1)
# Procedure: as §2
# [4] = target: T5, S33E/S37A β-catenin peptide binding to β-TrCP (Homo sapiens, UniProt P35222+Q9Y297, S33E/S37A); experiment: TR-FRET binding enhancement assay, S33E/S37A peptide; conditions: 1% binding saturation
# T5 construct: titrating BODIPY-FL-labeled β-catenin peptides (residues 17-48) against 300 pM β-TrCP; 6xHis-SMT3 (N, cleaved yes); made in house; host or cells: E. coli (co-expressed with BirA)
# T5 sequence (Q9Y297 1-569 isoform Q9Y297-2, stated change not applied, one chain of several): as the sequence (Q9Y297 1-569 isoform Q9Y297-2, stated change not applied) above
# T5 sequence (P63208 whole entry partner, one chain of several, the tested form may be a part): as the sequence (P63208 whole entry partner, the tested form may be a part) above
# Procedure: as §1
# [5] = target: T6, S33E/S37A β-catenin peptide ubiquitylation by SCFβ-TrCP (Homo sapiens, UniProt P35222+Q9Y297, S33E/S37A); experiment: In vitro ubiquitylation of S33E/S37A β-catenin peptide; type: biochemical; conditions: 20 μM compound
# T6 construct: fluorescently-labeled S33E/S37A β-catenin peptide (residues 17–60) was ubiquitylated; 6xHis-SMT3 (N, cleaved yes); made in house; host or cells: E. coli (β-TrCP1/Skp1); E. coli or SF9 (Cul1-Rbx1)
# Procedure: as §2
# [6] = target: T5, S33E/S37A β-catenin peptide binding to β-TrCP; experiment: TR-FRET peptide binding assay, S33E/S37A peptide; conditions: read-out: binding affinity of S33E/S37A peptide
# Procedure: as §1
# [7] = target: T7, pSer33/Ser37 β-catenin peptide binding to β-TrCP (Homo sapiens, UniProt P35222+Q9Y297); experiment: TR-FRET peptide binding and cooperativity assay, pSer33/Ser37 peptide; conditions: ratio of peptide KD without and with saturating enhancer; pSer33/Ser37
# T7 construct: titrating BODIPY-FL-labeled β-catenin peptides (residues 17-48) against 300 pM β-TrCP; 6xHis-SMT3 (N, cleaved yes); made in house; host or cells: E. coli (co-expressed with BirA)
# Procedure: as §1
# [8] = target: T8, pSer33/Ser37 β-catenin:β-TrCP interaction (Homo sapiens, UniProt P35222+Q9Y297); experiment: TR-FRET binding enhancement assay, pSer33/Ser37 peptide
# T8 construct: titrating BODIPY-FL-labeled β-catenin peptides (residues 17-48) against 300 pM β-TrCP; 6xHis-SMT3 (N, cleaved yes); made in house; host or cells: E. coli (co-expressed with BirA)
# T8 sequence (Q9Y297 1-569 isoform Q9Y297-2): as the sequence (Q9Y297 1-569 isoform Q9Y297-2, stated change not applied) above
# T8 sequence (P63208 whole entry partner, the tested form may be a part): as the sequence (P63208 whole entry partner, the tested form may be a part) above
# T8 sequence (P35222 17-48 limits assumed): as the sequence (P35222 17-48 S37A limits assumed) above, with A21S counted along it
# Procedure: as §1
# [9] = target: T9, pSer33/Ser37 β-catenin peptide ubiquitylation by SCFβ-TrCP (Homo sapiens, UniProt P35222+Q9Y297); experiment: In vitro ubiquitylation of pSer33/Ser37 β-catenin peptide; type: biochemical
# T9 construct: fluorescently-labeled β-catenin peptide (residues 17–60) were ubiquitylated; 6xHis-SMT3 (N, cleaved yes); made in house; host or cells: E. coli (β-TrCP1/Skp1); E. coli or SF9 (Cul1-Rbx1)
# T9 sequence (Q9Y297 1-569 isoform Q9Y297-2): as the sequence (Q9Y297 1-569 isoform Q9Y297-2, stated change not applied) above
# T9 sequence (P63208 whole entry partner, the tested form may be a part): as the sequence (P63208 whole entry partner, the tested form may be a part) above
# T9 sequence (Q13616 whole entry partner, the tested form may be a part): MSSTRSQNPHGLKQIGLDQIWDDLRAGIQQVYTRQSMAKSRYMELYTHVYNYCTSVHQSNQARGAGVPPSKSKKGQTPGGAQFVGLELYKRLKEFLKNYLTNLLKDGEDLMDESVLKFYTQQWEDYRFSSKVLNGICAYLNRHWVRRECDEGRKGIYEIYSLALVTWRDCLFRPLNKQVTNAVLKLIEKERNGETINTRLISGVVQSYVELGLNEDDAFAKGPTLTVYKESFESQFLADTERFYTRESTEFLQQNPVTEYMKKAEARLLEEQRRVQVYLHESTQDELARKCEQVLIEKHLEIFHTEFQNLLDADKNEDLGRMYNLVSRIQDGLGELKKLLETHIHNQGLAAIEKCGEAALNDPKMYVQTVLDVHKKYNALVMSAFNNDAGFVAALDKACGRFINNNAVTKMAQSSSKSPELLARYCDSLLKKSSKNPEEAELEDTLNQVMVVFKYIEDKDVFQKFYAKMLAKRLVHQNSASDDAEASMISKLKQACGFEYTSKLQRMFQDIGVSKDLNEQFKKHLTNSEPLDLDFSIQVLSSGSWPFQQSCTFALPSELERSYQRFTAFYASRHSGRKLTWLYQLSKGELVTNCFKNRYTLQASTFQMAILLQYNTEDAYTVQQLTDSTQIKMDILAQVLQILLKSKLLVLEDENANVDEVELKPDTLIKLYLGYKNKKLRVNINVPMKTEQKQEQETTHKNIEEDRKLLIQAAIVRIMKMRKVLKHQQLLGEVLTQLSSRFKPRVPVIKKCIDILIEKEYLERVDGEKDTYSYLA
# T9 sequence (P62877 whole entry partner, the tested form may be a part): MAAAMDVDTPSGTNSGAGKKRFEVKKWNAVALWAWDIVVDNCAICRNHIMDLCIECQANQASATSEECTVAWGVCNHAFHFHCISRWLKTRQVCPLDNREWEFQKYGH
# T9 sequence (Q15843 1-76 partner limits assumed): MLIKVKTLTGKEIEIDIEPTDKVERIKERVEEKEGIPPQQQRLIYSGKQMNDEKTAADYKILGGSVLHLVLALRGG
# T9 sequence (P35222 17-60 limits assumed): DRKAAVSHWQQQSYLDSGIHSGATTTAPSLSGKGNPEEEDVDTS
# Procedure: as §2
# [10] = target: T2, pSer33/S37A β-catenin peptide binding to β-TrCP; experiment: TR-FRET binding enhancement assay, pSer33/S37A peptide
# Procedure: as §1
# T1 sequence (Q9Y297 1-569 isoform Q9Y297-2): as the sequence (Q9Y297 1-569 isoform Q9Y297-2, stated change not applied) above
# T1 sequence (P63208 whole entry partner): as the sequence (P63208 whole entry partner, the tested form may be a part) above
molecule,measurement,setting,value
Ac-CDRKAAVSHWQQQSYLDEGIHAGATTTAPSLSG [S33E/S37A],decrease in binding affinity relative to pSer33/S37A peptide,β-TrCP,> 10 fold
O=C(O)c1cccc(NC(=O)c2c(Sc3c(Cl)cccc3Cl)cc(C(F)(F)F)[nH]c2=O)c1 [NRX-103094],cooperativity of peptide binding to β-TrCP,[1],1000 fold
same,ubiquitylation of full-length S33E/S37A β-catenin protein,[2],strongly ubiquitylated
same,concentration giving ubiquitylation greater than WT pSer33/pSer37 levels,[3],250 nM
same,EC50,[4],3.9 ± 0.1 µM
same,ubiquitylation of S33E/S37A β-catenin peptide,[5],robust time-dependent ubiquitylation
same,Kd,[6],0.022 µM
O=C(O)c1cccc(NC(=O)c2c(Oc3ccccc3)cc(C(F)(F)F)[nH]c2=O)c1 [NRX-2663],cooperativity of binding,[7],13 fold
same,EC50,[8],80 ± 4 µM
same,ligand concentration at which ubiquitin chain formation resembles WT pSer33/pSer37 peptide,[9],≥ 16 μM
same,enhancement of ubiquitylation of pSer33/Ser37 β-catenin peptide,[9]; peptide residues 17–60,markedly enhances
same,EC50,[10],22.9 ± 1.4 µM

# From paper PMC6441019, “Prospective discovery of small molecule enhancers of an E3 ligase-substrate interaction” (Nature Communications, 2019)
